Converted amounts (≈) assume the structure as drawn.
Conditions: buffer; pH 7.4; 200.0 µM

Row | SMILES | solubility kinetic [µg/mL]
1 | Cn1c(=O)c2c(nc(N3CCc4ccccc4C3)n2C)n(C)c1=O | 43.2 (≈ 133 µM)
2 | COc1cc2c(cc1OC)C(C)N(C(=O)c1c(C)noc1C)CC2 (stereo not given) | 2.7 (≈ 8.17 µM)
3 | O=C1c2ccccc2C(=O)N1CCCn1ccnc1 | > 38.3
4 | CCn1ncc(N2CCOCC2)c(Cl)c1=O | > 36.6
5 | COc1ccc(C=O)cc1OC(=O)N1CCOCC1 | > 39.8
6 | O=C1CCC([N+](=O)[O-])C(c2ccccc2F)N1 (stereo not given) | > 35.7
7 | O=C(c1cncc(Br)c1)N1CCN(S(=O)(=O)c2ccc3ccccc3c2)CC1 | 6.5 (≈ 14.1 µM)
8 | O=C(Nc1ccc(Cl)cc1N1CCOCC1)C1CC1 | > 42.1
9 | COC(=O)c1sc(NC(=O)c2c(F)cccc2F)c(C#N)c1C | 7.2 (≈ 21.4 µM)
10 | O=[N+]([O-])c1c(NCCO)cc(N2CCCCC2)c2nonc12 | 38.6 (≈ 126 µM)
11 | CCC(=O)Nc1cc(OC)cc(OC)c1 | > 31.4
12 | Cc1ccc(C)c(S(=O)(=O)c2c(C)cc(C)nc2Cl)c1 | 27 (≈ 87.1 µM)
13 | COc1ccc(N2C(=O)C(CN3CCCCC3)C2c2ccccc2)cc1 (stereo not given) | 51.7 (≈ 148 µM)
14 | COc1ccc(Oc2ncnc3sccc23)cc1 | 14.9 (≈ 57.7 µM)
15 | COC(=O)c1sc(N(C)C)c(C#N)c1-c1ccccc1 | 1.8 (≈ 6.29 µM)
16 | O=C1C2C3CC(C2C(=O)N1c1cccc(Cl)c1)[C@H](O)C3O (stereo not given in full) | > 46.2
17 | CC1(C)c2ccccc2-n2c1cc1oc(=O)cc(O)c1c2=O | 35.6 (≈ 121 µM)
18 | CCCN(CCC)C(=O)c1cc2c(=O)n3cccc(C)c3nc2s1 | 34.7 (≈ 101 µM)
19 | O=C(CN1CCN(c2ccccn2)CC1)Nc1ccccc1F | 42.3 (≈ 135 µM)
20 | O=C(CSc1nnc(NC(=O)c2ccccc2F)s1)NC1CC1 | > 52.9
21 | CCOc1ccc(S(=O)(=O)NC2CCCCC2C)cc1 (stereo not given) | 37.5 (≈ 126 µM)
22 | N/C(=N\O)c1ccncc1 | > 20.6
23 | CC1(C(=O)Nc2nc3ccc(S(C)(=O)=O)cc3s2)CC1(Cl)Cl (stereo not given) | 52.1 (≈ 137 µM)
24 | CCC(=O)Nc1nc2ccc([N+](=O)[O-])cc2s1 | 0.9 (≈ 3.58 µM)
25 | CN1CCC(OC(c2ccccc2)c2ccccc2)CC1.Cl | > 47.7
26 | S=c1[nH]c2cc3ccccc3cc2[nH]1 | 27.9 (≈ 139 µM)
27 | O=C1Nc2ccccc2O/C1=C\c1ccccc1 | 1.2 (≈ 5.06 µM)

The next lines start with the values.

Row | solubility kinetic [µg/mL] | SMILES
28 | 5.9 (≈ 10.3 µM) | O=C(CN1C(=O)/C(=C2/SC(=S)N(CCS(=O)(=O)O)C2=O)c2ccccc21)Nc1cccc(C(F)(F)F)c1
29 | 22.5 (≈ 98.6 µM) | Cc1ccc(O)c(CNc2cccc(C)n2)c1
30 | 26.1 (≈ 72.1 µM) | O=C(COC(=O)COc1ccc(Cl)cc1)NCCCc1ccccc1
31 | > 54.4 | CC(=O)N(C)c1ccc(NS(=O)(=O)c2cccc3nsnc23)cc1
32 | 74.2 (≈ 147 µM) | CC1CCCC(C)N1C(=O)COC(=O)c1ccc(Br)c(S(=O)(=O)N2CCOCC2)c1 (stereo not given)
33 | 8.7 (≈ 25.4 µM) | Cc1cc(C(=O)OCC(=O)Nc2c(Cl)cccc2Cl)c(C)o1
34 | 16.6 (≈ 60.1 µM) | CC1(CCc2ccccc2)NC(=O)N(CC(=O)O)C1=O (stereo not given)
35 | 12.8 (≈ 44.6 µM) | Cc1ccc(C(=O)OCC(=O)NCc2ccco2)cc1C
36 | 32.2 (≈ 116 µM) | CC(=O)Nc1ccc(NC(=S)NC(=O)C2CC2)cc1
37 | 13.9 (≈ 48 µM) | COC(=O)c1ccc(CO/N=C/c2ccc(OC)cc2)o1
38 | < 0.6 | CC(=O)Nc1ccc(OCc2cccc3ccccc23)cc1
39 | > 59.2 | CCOC(=O)Cc1csc(NS(=O)(=O)c2ccc(C(F)(F)F)cc2)n1
40 | 2.9 (≈ 9.02 µM) | NS(=O)(=O)c1ccc(CCNc2ccccc2[N+](=O)[O-])cc1
41 | 44 (≈ 142 µM) | COC(=O)c1ccccc1NC(=O)c1sc(Cl)nc1C
42 | > 48.1 | CCOC(=O)c1c(-c2ccc(F)cc2)csc1/N=C/N(C)C
43 | 30.7 (≈ 124 µM) | O=C(Nc1ccc2ncccc2c1)c1ccccc1
44 | > 47.1 | Cc1nc2ccccc2c(=O)n1NC(=O)c1cccc(Cl)c1

Row | solubility kinetic [µg/mL] | SMILES
45 | 8.2 (≈ 28.6 µM) | O=C(NCCCCc1ccccc1)Nc1cccc(F)c1
46 | 19.6 (≈ 68 µM) | CC(=O)c1ccc(Sc2ccccc2N)c([N+](=O)[O-])c1
47 | 31.6 (≈ 104 µM) | O=C(CCCCCl)Nc1c2c(nc3ccccc13)CCC2
48 | 33.9 (≈ 87.9 µM) | CN(C)C(CNC(=O)c1cc(-c2ccco2)nc2ccccc12)c1ccccc1 (stereo not given)
49 | > 47.8 | CC(=O)Nc1ccc(NC(=O)COC(=O)C2CCCCC2)cc1
50 | > 26 | O=c1ccc(-c2ccccc2)no1
51 | 48.7 (≈ 141 µM) | COc1ccc(CCNC(=O)CCNC(=O)c2ccco2)cc1OC
52 | > 43.6 | COCCCNC(=O)c1ccc(-c2csc(C)n2)cc1
53 | 42.6 (≈ 143 µM) | O=C(c1ccc(F)cc1)N(c1ccccn1)C1CCCCC1
54 | 8.1 (≈ 21.9 µM) | CC(=O)Nc1ccc(C(=O)OCC(=O)NCc2ccc3c(c2)OCO3)cc1
55 | 38 (≈ 83.4 µM) | CCC1(c2ccccc2)NC(=O)N(CC(=O)N(c2ccccc2)C2CCS(=O)(=O)C2)C1=O (stereo not given)
56 | 36.4 (≈ 135 µM) | O=C1CCCc2ccccc2N1Cc1cccc(F)c1
57 | 1.2 (≈ 3.52 µM) | CCOC(=O)c1sc(Nc2ccc(Br)cc2)nc1C
58 | 46.3 (≈ 144 µM) | COC(=O)c1ccc(C2C(C#N)=C(N)Oc3cc(O)ccc32)cc1 (stereo not given)
59 | 6.9 (≈ 22.6 µM) | CC(=O)c1c(C)[nH]c(C(=O)COC(=O)c2cccs2)c1C
60 | > 50.9 | COc1ccc(NC(=O)CN2CCN(Cc3ccccc3)CC2)cc1

Source: PubChem BioAssay AID1996
